Laboratory results: patent US20030176501A1 (priority 2000, published 2003)

Legend:
[1] = design: species or system human; settings: in vivo
HMG-CoA reductase = biological target: T1, HMG-CoA reductase (Homo sapiens, UniProt P04035); settings: in vivo, po
T1 sequence (P04035 1-888): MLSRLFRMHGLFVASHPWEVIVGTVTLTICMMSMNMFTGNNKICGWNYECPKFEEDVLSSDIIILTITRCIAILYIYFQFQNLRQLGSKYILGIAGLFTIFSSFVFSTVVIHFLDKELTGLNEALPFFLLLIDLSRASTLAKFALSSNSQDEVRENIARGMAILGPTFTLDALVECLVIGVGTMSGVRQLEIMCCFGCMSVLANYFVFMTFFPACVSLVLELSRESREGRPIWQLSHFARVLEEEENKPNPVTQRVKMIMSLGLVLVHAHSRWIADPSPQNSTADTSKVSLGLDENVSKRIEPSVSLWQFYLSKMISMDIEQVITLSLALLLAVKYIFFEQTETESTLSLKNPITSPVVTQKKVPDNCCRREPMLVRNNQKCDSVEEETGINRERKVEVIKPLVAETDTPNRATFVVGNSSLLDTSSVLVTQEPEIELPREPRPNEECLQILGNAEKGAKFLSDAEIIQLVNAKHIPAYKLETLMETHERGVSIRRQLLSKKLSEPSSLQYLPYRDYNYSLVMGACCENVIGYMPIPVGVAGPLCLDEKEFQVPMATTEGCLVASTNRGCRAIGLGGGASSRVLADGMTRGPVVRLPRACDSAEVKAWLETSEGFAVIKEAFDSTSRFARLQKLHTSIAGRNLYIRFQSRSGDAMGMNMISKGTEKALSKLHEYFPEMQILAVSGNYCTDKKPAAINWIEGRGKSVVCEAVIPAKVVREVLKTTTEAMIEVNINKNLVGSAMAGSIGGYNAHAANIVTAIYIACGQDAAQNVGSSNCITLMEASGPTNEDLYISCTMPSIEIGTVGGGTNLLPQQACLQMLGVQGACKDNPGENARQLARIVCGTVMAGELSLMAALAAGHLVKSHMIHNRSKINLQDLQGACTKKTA

- apparent t1/2, effect of itraconazole [1]: essentially unchanged
- t½, SV in plasma ([1]; male, human, po): 6.7 (1.7) hr
- Cmax, Active Inhibitors (HMG-CoA reductase): 5.7 ± 3.0 ng eq/mL
Compound: CCC(C)(C)C(=O)O[C@H]1C[C@@H](C)C=C2C=C[C@H](C)[C@H](CC[C@@H](O)C[C@@H](O)CC(=O)O)[C@H]21 [SVA, dihydroxy open acid simvastatin]
